Measurements from ChEMBL document CHEMBL1201862, “PubChem BioAssay data set” (2004).
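Step 1: Grow cells in 96-well plates. Step 2: Expose to compound for 48 hours at 5 concentrations. Step 3: Interpolate endpoints linearly; if unreached, use highest concentration. GI50 marks 50% less growth.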 The source made the active and inactive calls. Rule as the data show it: active = GI50 up to about 1.1 µM and inactive = higher.

Key:
Test in all cases: inhibition of tumour cell growth, NCI panel, 48 h
CAKI-1 = system: CAKI-1
MDA-N = system: MDA-N
NCI-H522 = system: NCI-H522
COLO 205 = system: COLO 205
HT-29 = system: HT-29
HCT-116 = system: HCT-116
SF-539 = system: SF-539
SR = system: SR
MDA-MB-435 = system: MDA-MB-435
SK-MEL-2 = system: SK-MEL-2
M14 = system: M14
TK-10 = system: TK-10
NCI-H226 = system: NCI-H226
LOX IMVI = system: LOX IMVI
SF-295 = system: SF-295
RPMI-8226 = system: RPMI-8226
NCI-H23 = system: NCI-H23
A498 = system: A498
PC-3 = system: PC-3
HOP-92 = system: HOP-92

Measured: GI50

[O-][N+]1(CC[N+]2([O-])CCCCC2)CCCCC1
inactive: CAKI-1 > 100 µM | MDA-N > 100 µM | NCI-H522 > 100 µM | COLO 205 > 100 µM | HT-29 > 100 µM | HCT-116 > 100 µM | SF-539 > 100 µM | SR > 100 µM | MDA-MB-435 > 100 µM | SK-MEL-2 > 100 µM | M14 > 100 µM | TK-10 > 100 µM | NCI-H226 > 100 µM | LOX IMVI > 100 µM | SF-295 > 100 µM | RPMI-8226 > 100 µM | NCI-H23 > 100 µM | A498 > 100 µM | PC-3 > 100 µM | HOP-92 > 100 µM

COc1ccc(S(=O)(=O)N/N=C/C(=O)O)cc1
inactive: CAKI-1 458 µM | MDA-N 760 µM | NCI-H522 275 µM | COLO 205 1010 µM | HT-29 336 µM | HCT-116 445 µM | SF-539 519 µM | SR 202 µM | MDA-MB-435 407 µM | SK-MEL-2 428 µM | M14 684 µM | TK-10 832 µM | NCI-H226 624 µM | LOX IMVI 248 µM | SF-295 465 µM | RPMI-8226 269 µM | NCI-H23 369 µM | A498 495 µM | PC-3 389 µM | HOP-92 364 µM

O=P1(O)c2ccccc2Nc2cc(C(F)(F)F)ccc21
inactive: CAKI-1 > 100 µM | MDA-N > 100 µM | NCI-H522 > 100 µM | COLO 205 > 100 µM | HT-29 > 100 µM | HCT-116 > 100 µM | SF-539 > 100 µM | SR > 100 µM | MDA-MB-435 > 100 µM | SK-MEL-2 > 100 µM | M14 > 100 µM | TK-10 > 100 µM | NCI-H226 > 100 µM | LOX IMVI > 100 µM | SF-295 > 100 µM | RPMI-8226 > 100 µM | NCI-H23 > 100 µM | A498 > 100 µM | PC-3 > 100 µM | HOP-92 > 100 µM

O=S(=O)(N=S(c1ccc(Cl)cc1)c1ccc(Cl)cc1)c1ccccc1
inactive: CAKI-1 > 100 µM | MDA-N 40.7 µM | NCI-H522 70.3 µM | COLO 205 > 100 µM | HT-29 88.7 µM | HCT-116 59.3 µM | SF-539 > 100 µM | SR 37.5 µM | MDA-MB-435 37.9 µM | SK-MEL-2 > 100 µM | M14 > 100 µM | TK-10 > 100 µM | NCI-H226 > 100 µM | LOX IMVI > 100 µM | SF-295 68.5 µM | RPMI-8226 40.4 µM | NCI-H23 63.4 µM | A498 19.7 µM | PC-3 43.6 µM | HOP-92 > 100 µM

CCOC(=O)/C=C(\C(=O)OCC)n1ccc(=O)n(Cc2cn(CCCCOC(C)=O)nn2)c1=O
inactive: CAKI-1 4.25 µM | MDA-N 19.5 µM | NCI-H522 1.72 µM | COLO 205 2.89 µM | HT-29 8.05 µM | HCT-116 11.2 µM | SF-539 2.34 µM | SR 10.1 µM | MDA-MB-435 5 µM | SK-MEL-2 18.8 µM | M14 23.9 µM | TK-10 6.4 µM | NCI-H226 13.6 µM | LOX IMVI 14.9 µM | SF-295 35.9 µM | RPMI-8226 8.65 µM | NCI-H23 16.6 µM | A498 17.6 µM | PC-3 17.1 µM | HOP-92 2.55 µM

O=C1c2c(ccc3c2CCCC3)CC12Cc1ccccc1C2
inactive: CAKI-1 7.62 µM | MDA-N 6.43 µM | NCI-H522 12.8 µM | COLO 205 15.1 µM | HT-29 5.96 µM | HCT-116 5.43 µM | SF-539 6.31 µM | SR 4.57 µM | MDA-MB-435 9.38 µM | SK-MEL-2 17.4 µM | M14 21 µM | TK-10 28 µM | NCI-H226 9.53 µM | LOX IMVI 10.1 µM | SF-295 19 µM | RPMI-8226 4.35 µM | NCI-H23 10.3 µM | A498 11.1 µM | PC-3 22.9 µM | HOP-92 12.7 µM

O=c1[nH]n(Cc2ccccc2)c2ccc([N+](=O)[O-])cc12
inactive: CAKI-1 59.2 µM | MDA-N 29.2 µM | NCI-H522 65.5 µM | COLO 205 > 100 µM | HT-29 41.2 µM | HCT-116 49.4 µM | SF-539 87.1 µM | SR 69.7 µM | MDA-MB-435 19.9 µM | SK-MEL-2 47.8 µM | M14 46.2 µM | TK-10 > 100 µM | NCI-H226 > 100 µM | LOX IMVI 88.7 µM | SF-295 66.8 µM | RPMI-8226 48.5 µM | NCI-H23 56.5 µM | A498 47.3 µM | PC-3 37.2 µM | HOP-92 55.8 µM

CCN(CC)c1nc(=O)c(C(=O)C(C)(C)C)c(C(C)(C)C)o1
inactive: CAKI-1 > 100 µM | MDA-N > 100 µM | NCI-H522 > 100 µM | COLO 205 > 100 µM | HT-29 > 100 µM | HCT-116 > 100 µM | SF-539 > 100 µM | SR > 100 µM | MDA-MB-435 > 100 µM | SK-MEL-2 > 100 µM | M14 > 100 µM | TK-10 > 100 µM | NCI-H226 > 100 µM | LOX IMVI > 100 µM | SF-295 > 100 µM | RPMI-8226 > 100 µM | NCI-H23 > 100 µM | A498 > 100 µM | PC-3 > 100 µM | HOP-92 > 100 µM

CC[C@@H](/C=C\CCC1(C[C@H](O)CCC=C(C)C)OCCO1)O[Si](C(C)C)(C(C)C)C(C)C
inactive: CAKI-1 28.6 µM | MDA-N 33.5 µM | NCI-H522 20.2 µM | COLO 205 19.8 µM | HT-29 25 µM | HCT-116 17 µM | SF-539 18.5 µM | SR 21.2 µM | MDA-MB-435 35 µM | SK-MEL-2 16.3 µM | M14 26.5 µM | TK-10 20.6 µM | NCI-H226 19.6 µM | LOX IMVI 20.4 µM | SF-295 20.2 µM | RPMI-8226 18.4 µM | NCI-H23 26.9 µM | A498 32.8 µM | PC-3 29.8 µM | HOP-92 28.5 µM

Nc1c2c(nc3ccccc13)-c1ccccc1NCCC2
inactive: CAKI-1 30.8 µM | MDA-N 17.5 µM | NCI-H522 26.9 µM | COLO 205 16.8 µM | HT-29 23 µM | HCT-116 23.3 µM | SF-539 21 µM | SR 17.9 µM | MDA-MB-435 22 µM | SK-MEL-2 18 µM | M14 17.4 µM | TK-10 19 µM | NCI-H226 25.4 µM | LOX IMVI 16.8 µM | SF-295 17.7 µM | RPMI-8226 20.2 µM | NCI-H23 47.3 µM | A498 16.6 µM | PC-3 20.4 µM | HOP-92 13.9 µM
